{
  "source": "patent US6455577B2",
  "about": "“Flavanone derivatives and composition for preventing or treating blood lipid level-related diseases comprising same” (Korea Research Institute of Bioscience and Biotechnology, priority 2000, dated 2002)",
  "key": {"[1]": {"system": "New Zealand White rabbits", "experiment": "Abnormal fat-containing liver cells (fatty liver) in cholesterol-fed rabbits", "format": "in vivo, rabbit", "description": "(§1) 22 three-month-old New Zealand White rabbits(Yeonam Horticulture and Animal Husbandry College, Korea) each weighing about 2.0 to 2.3 kg were bred under a condition of temperature 20±2° C., relative humidity 55±10%, and photoperiod 12L/12D. The rabbits were divided two groups of 6 rabbits and a group of 10 rabbits, and the rats of three groups were fed with three different diets, i.e., RC4 diet(Oriental Yeast Co., Japan) containing 1% cholesterol(Control group); 1% cholesterol plus 1 mg/kg Lovastatin® (Merck, U.S.A.)(Comparative group); and 1% cholesterol plus 0.1% NG5006, respectively. RC4 diet comprises 7.6% moisture, 22.8% crude protein, 2.8% crude fat, 8.8% crude ash, 14.4% crude cellulose and 43.6% soluble nitrogen-free substances. The rabbits were bred for 8 weeks while being allowed free access to the diets and water.\nIn order to evaluate the effects of feeding a high cholesterol diet with NG5006 on liver tissues, the liver specimens taken from the sacrificed rabbit in Step 2 of Example 14 were treated in accordance with the procedure disclosed in Fogt F. and Nanji A., Toxicology and Applied Pharmacology, 136, 87-93, 1996; and Keegan A., et al., Journal of Hepatology, 23, 591-600, 1995, and observed under a microscope to be classified into four grades, i.e., 1+(0-25%), 2+(26-50%), 3+(51-75), 4+(76-100%) based on the proportion of abnormal fat-containing cells around the central vein in the liver acinus. The results were tested by student t-test by using Microsoft excel(version 7.0) program."}, "ACAT [2]": {"system": "ACAT", "experiment": "ACAT activity in fed rabbits", "format": "in vivo, rabbit", "details": "rabbits fed 1% cholesterol plus 1 mg/kg Lovastatin or 0.1% NG5006, 8 weeks", "description": "as §1\nThe effect of feeding NG5006 to rabbits on the activities of ACAT was determined using the rabbits bred in Step 1 of Example 14 in accordance with procedure disclosed in step 1 of Example 13."}, "[3]": {"system": "New Zealand White rabbits", "experiment": "Fatty streak in the main artery of cholesterol-fed rabbits", "format": "in vivo, rabbit", "description": "as §1\nThe rabbits bred in Step 1 were sacrificed and their chest were incised. The main artery was cut out therefrom in a length of about 5 cm downward from the site 1 cm above the aortic valve and the fat surrounding the main artery was removed. The main artery was incised in the middle along the longitudinal axis and fixed in 10% neutral buffered formalin for 24 hours, and then, pinned to a dish. The moist artery was photographed and, then, staining of fatty streak was carried out in accordance with the method of Esper, E., et al. (J. Lab. Clin. Med., 121, 103-110(1993)) as follows.\nA part of the incised main artery was washed three times by 2 min. with anhydrous propylene glycol and stained for 30 min. with a saturated solution of Oil Red O(ORO, Sigma Co.) dissolved in propylene glycol. Thereafter, the artery was washed twice by 3 min. with 85% propylene glycol to remove remaining staining solution and, then washed with physical saline. The artery was photographed and the photograph was traced. The area of stained legion(fatty streak legion) was determined with an image analyzer(LEICA, Q-600, Germany) and its proportion(%) to the total arterial area was calculated. The result is shown in Table V. The results were tested by student t-test by using Microsoft excel(version 7.0) program."}, "ACAT [4]": {"system": "ACAT", "experiment": "ACAT activity in liver microsomes of fed rats", "format": "in vivo, rat", "description": "To determine the effect of feeding NG5006 to rats on the activities of ACAT and HMG-CoA reductase, microsomes were separated from liver tissues to be used as an enzyme source.\n1 g each of the livers taken from each group of rats of Example 12 was homogenized in 5 ml of homogenization medium(0. 1 M KH2PO4, pH 7.4, 0.1 mM EDTA and 10 mM β-mercaptoethanol). The homogenate was centrifuged at 3,000×g for 10 min. at 4° C. and the supernatant thus obtained was centrifuged at 15,000×g for 15 min. at 4° C. to obtain a supernatant. The supernatant was put into an ultracentrifuge tube(Beckman) and centrifuged at 100,000×g for 1 hour at 4° C. to obtain microsomal pellets, which were then suspended in 3 ml of the homogenization medium and centrifuged at 100,000×g for 1 hour at 4° C. The pellets thus obtained were suspended in 1 ml of the homogenization medium. The protein concentration of the resulting suspension was determined by Lowry's method and then adjusted to 4 to 8 mg/ml. The resulting suspension was stored in a deep freezer(Biofreezer, Forma Scientific Inc.).\n6.67 μl of 1 mg/ml cholesterol solution in acetone was mixed with 6 μl of 10% Triton WR-1339(Sigma Co.) in acetone and then, acetone was removed from the mixture by evaporation under a nitrogen flow. Distilled water was added to the resulting mixture to adjust the concentration of cholesterol to […].\nAdded to 10 μl of the resulting aqueous cholesterol solution were 10 μl of 1 M KH2PO4(pH 7.4), 5 μl of 0.6 mM bovine serum albumin(BSA), 10 μl of microsome solution obtained in (Step 1) and 55 μl of distilled water(total 90 μl). The mixture was pre-incubated in a water bath at 37° C. for 30 min. […]\n200 μl of the resulting supernatant was put in a scintillation bottle and 4 ml of scintillation fluid(Lumac Co.) was added thereto. The mixture was assayed for radioactivity with 1450 Microbeta liquid scintillation counter(Wallac Co., Finland). ACAT activity was calculated as picomoles of cholesteryl oleate synthesized per min. per mg protein(pmoles/min/mg protein)."}, "[5]": {"details": "1% cholesterol plus 1 mg/kg Lovastatin or 0.1% NG5006"}},
  "data": [
    {"smiles": "CCCCCCCCCCCCCCCCOc1cc(O)c2c(c1)OC(c1ccc(O)cc1)CC2=O", "note": "(stereo not shown) [NG5006, Naringenin 7-O-cetyl Ether]", "values": [
      {"measurement": "microscopic features of the livers (FIGS. 2B, 2C)", "setting": "[1]; [5]", "result": "almost all liver cells are of a normal shape"},
      {"measurement": "formation of fatty liver compared to the Control and the Lovastatin group, in words", "setting": "[1]; 1% cholesterol plus 0.1% NG5006", "result": "significantly inhibits the formation of fatty liver"},
      {"measurement": "Proportion of abnormal fat-containing liver cells (grade)", "setting": "[1]; grades 1+(0-25%), 2+(26-50%), 3+(51-75), 4+(76-100%), 1% cholesterol plus 1 mg/kg Lovastatin or 0.1% NG5006, 8 weeks", "result": "2.2 ± 0.9"},
      {"measurement": "ACAT activity", "setting": "ACAT [2]", "result": "215.2 ± 30.3", "unit": "pmole/min/mg protein"},
      {"measurement": "% Inhibition on ACAT Activity", "setting": "ACAT [2]; versus control group", "result": 16.2, "unit": "%"},
      {"measurement": "layer on the arterial endothelium (FIGS. 1B, 1C)", "setting": "[3]; [5]", "result": "no or very thin layers of macrophage-lipid complex"},
      {"measurement": "formation of fatty streak compared to the control group, in words", "setting": "[3]; 1% cholesterol plus 1 mg/kg Lovastatin or 0.1% NG5006, 8 weeks", "result": "significantly inhibit the formation of fatty streak"},
      {"measurement": "Fatty Streak lesion (proportion of total arterial area)", "setting": "[3]; 1% cholesterol plus 1 mg/kg Lovastatin or 0.1% NG5006, 8 weeks, Oil Red O staining", "result": "12.3 ± 6.2", "unit": "%"},
      {"measurement": "ACAT activity lower than that of the control group", "setting": "ACAT [4]; NG5006-fed rat group", "result": 14, "unit": "%"},
      {"measurement": "ACAT activity", "setting": "ACAT [4]; liver microsomes of rats fed 1% cholesterol plus 0.02% naringenin or 0.036% NG5006, six weeks", "result": "149.7 ± 5.1", "unit": "pmole/min/mg protein"}
    ]}
  ]
}
